According to ChEMBL document CHEMBL5154664, “Imidazolylacetophenone oxime-based multifunctional neuroprotective agents: Discovery and structure-activity relationships” (Eur J Med Chem, 2022):
≈ marks a conversion by molar mass, not a printed value. Calls of active or inactive are those of the source. No cut-off for these calls is given here.

Experiments:
[1] = Cytotoxicity against LPS induced mouse BV-2 cells assessed as inhibition in cell viability at 20 uM measured by MTT assay
[2] = Inhibition of LPS induced NO production in mouse BV-2 cells by Griess reagent based analysis; type: functional, cell-based
[3] = biological target: Acetylcholinesterase (Electrophorus electricus) (UniProt O42275); assay: Inhibition of electric eel AChE at 20 uM using acetylthiocholine iodide as substrate preincubated with enzyme for 20 mins followed by substrate addition and measured after 45 mins by Ellman's method; conditions: time 65.0 min
Sequence of Acetylcholinesterase (Electrophorus electricus) (O42275 24-633 limits assumed): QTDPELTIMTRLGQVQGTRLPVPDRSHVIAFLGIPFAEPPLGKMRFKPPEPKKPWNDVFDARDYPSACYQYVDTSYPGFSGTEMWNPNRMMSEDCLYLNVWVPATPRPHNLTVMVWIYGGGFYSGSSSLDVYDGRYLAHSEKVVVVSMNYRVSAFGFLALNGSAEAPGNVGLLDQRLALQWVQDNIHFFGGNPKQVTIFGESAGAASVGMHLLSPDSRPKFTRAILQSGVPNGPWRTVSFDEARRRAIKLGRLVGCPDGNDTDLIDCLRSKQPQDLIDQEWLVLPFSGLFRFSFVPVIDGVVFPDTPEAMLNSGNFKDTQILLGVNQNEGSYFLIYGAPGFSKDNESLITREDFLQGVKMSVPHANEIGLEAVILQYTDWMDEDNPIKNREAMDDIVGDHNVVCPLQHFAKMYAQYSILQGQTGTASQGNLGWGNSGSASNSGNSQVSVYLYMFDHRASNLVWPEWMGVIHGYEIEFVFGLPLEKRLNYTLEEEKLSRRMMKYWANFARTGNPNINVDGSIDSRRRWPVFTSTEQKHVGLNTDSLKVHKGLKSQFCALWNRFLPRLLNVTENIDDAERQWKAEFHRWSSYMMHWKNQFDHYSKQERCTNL

[4] = Cytotoxicity against rat PC12 cells assessed as cell viability at 1 to 10 uM measured after 24 hrs by MTT assay relative to control; type: toxicity, cell-based, PC-12; conditions: dose 1-10 µM, read-out: Activity
[5] = test system: BV-2; assay: Antiinflammatory activity in mouse BV-2 cells assessed as […] LPS-induced TNFalpha production at 1 to 10 uM and measured after 24 hrs by ELISA; type: functional, cell-based; conditions: dose 1-10 µM, DDE = dose-dependent effect
[6] = test system: PC-12; assay: Neuroprotective activity against H2O2-induced neuronal death in rat PC12 cells assessed as increase in cell viability at 10 uM measured after 24 hrs by MTT assay relative to control; type: functional
[7] = test system: BV-2; assay: Antiinflammatory activity in mouse BV-2 cells assessed as suppression of LPS-induced IL-1beta secretion at 10 uM and measured after 24 hrs by ELISA; type: functional, cell-based
[8] = test system: PC-12; assay: Anti-ferroptotic activity against RSL-3 induced ferroptosis in rat PC12 cells assessed as increase in cell viability at 10 uM measured after 24 hrs by MTT assay relative to control; type: functional
[9] = Permeability of compound by PAMPA-BBB assay; type: ADME; conditions: read-out: permeability
[10] = Solubility of the compound by UV-spectrometry; type: physicochemical
[11] = Antioxidant activity assessed as DPPH radical scavenging activity at 20 uM incubated for 30 mins under dark condition by microplate reader based assay; type: functional
[12] = Metal chelating activity assessed as compound Zn2+ complex formation by measuring maximum absorption wavelength shift at 25 uM incubated for 30 mins by UV-visible spectrophotometry
[13] = Metal chelating activity assessed as compound Ca2+ complex formation by measuring maximum absorption wavelength shift at 25 uM incubated for 30 mins by UV-visible spectrophotometry
[14] = biological target: Acetylcholinesterase (Electrophorus electricus, UniProt O42275); assay: Mixed type inhibition of electric eel AChE by reciprocal Lineweaver-Burk plot analysis
Sequence of Acetylcholinesterase (O42275 whole entry): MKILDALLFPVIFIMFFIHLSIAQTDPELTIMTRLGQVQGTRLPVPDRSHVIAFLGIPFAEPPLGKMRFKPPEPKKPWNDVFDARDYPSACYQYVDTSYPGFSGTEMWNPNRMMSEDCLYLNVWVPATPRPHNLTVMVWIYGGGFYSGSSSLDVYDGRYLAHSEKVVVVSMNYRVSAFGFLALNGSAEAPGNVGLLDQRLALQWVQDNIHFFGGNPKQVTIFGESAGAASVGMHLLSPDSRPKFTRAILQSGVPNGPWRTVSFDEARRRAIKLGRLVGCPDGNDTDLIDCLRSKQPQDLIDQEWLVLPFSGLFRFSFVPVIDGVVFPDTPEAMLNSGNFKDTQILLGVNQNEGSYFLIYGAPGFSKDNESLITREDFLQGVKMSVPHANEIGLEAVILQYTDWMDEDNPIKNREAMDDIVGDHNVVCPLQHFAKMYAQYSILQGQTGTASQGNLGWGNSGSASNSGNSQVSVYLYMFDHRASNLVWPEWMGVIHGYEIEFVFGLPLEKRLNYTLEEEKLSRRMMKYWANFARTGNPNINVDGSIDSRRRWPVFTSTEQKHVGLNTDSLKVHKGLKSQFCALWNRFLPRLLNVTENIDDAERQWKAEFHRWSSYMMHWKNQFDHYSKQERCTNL

[15] = test system: BV-2; assay: Antiinflammatory activity in mouse BV-2 cells assessed as reduction in LPS-induced COX-2 expression at 0.5 uM by Western blot analysis relative to control; type: functional, cell-based
[16] = Metal chelating activity assessed as compound Mg2+ complex formation by measuring maximum absorption wavelength shift at 25 uM incubated for 30 mins by UV-visible spectrophotometry
[17] = Metal chelating activity assessed as compound Fe2+ complex formation by measuring maximum absorption wavelength shift at 25 uM incubated for 30 mins by UV-visible spectrophotometry
[18] = test system: BV-2; assay: Antiinflammatory activity in mouse BV-2 cells assessed as reduction in LPS-induced COX-2 expression at 0.1 to 5 uM by Western blot analysis relative to control; type: functional, cell-based; conditions: dose 0.1-5 µM, DDE = dose-dependent effect
[19] = Metal chelating activity assessed as Cu2+-compound complex formation by measuring maximum absorption wavelength shift at 25 uM incubated for 30 mins by UV-Visible spectrophotometry
[20] = biological target: Prostaglandin G/H synthase 2 (Homo sapiens) (UniProt P35354); assay: Inhibition of human COX2 at 40 uM by microplate reader assay
Sequence of Prostaglandin G/H synthase 2 (Homo sapiens) (P35354 whole entry, looked up): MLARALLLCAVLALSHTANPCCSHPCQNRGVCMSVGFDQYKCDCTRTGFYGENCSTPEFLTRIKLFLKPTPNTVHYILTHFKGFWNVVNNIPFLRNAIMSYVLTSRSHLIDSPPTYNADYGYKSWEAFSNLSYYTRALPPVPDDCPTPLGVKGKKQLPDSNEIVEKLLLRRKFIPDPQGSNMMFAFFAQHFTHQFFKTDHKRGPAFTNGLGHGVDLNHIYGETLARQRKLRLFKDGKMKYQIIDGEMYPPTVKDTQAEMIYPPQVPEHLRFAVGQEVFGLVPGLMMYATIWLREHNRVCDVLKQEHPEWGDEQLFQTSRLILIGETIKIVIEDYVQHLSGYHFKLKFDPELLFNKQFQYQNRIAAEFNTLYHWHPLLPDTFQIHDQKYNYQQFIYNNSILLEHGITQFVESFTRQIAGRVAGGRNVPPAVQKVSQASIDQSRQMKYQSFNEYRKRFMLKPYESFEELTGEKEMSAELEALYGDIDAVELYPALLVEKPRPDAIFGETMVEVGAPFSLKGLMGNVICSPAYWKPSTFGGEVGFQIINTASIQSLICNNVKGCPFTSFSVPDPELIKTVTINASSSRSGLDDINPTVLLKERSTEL

[21] = test system: BV-2; assay: Antiinflammatory activity in mouse BV-2 cells assessed as reduction in LPS-induced iNOS expression at 0.1 to 5 uM by Western blot analysis relative to control; type: functional, cell-based; conditions: dose 0.1-5 µM, DDE = dose-dependent effect
[22] = test system: BV-2; assay: Antiinflammatory activity in mouse BV-2 cells assessed as increase in LPS-induced Arg1 level at 10 uM by ELISA; type: functional, cell-based
[23] = test system: BV-2; assay: Antiinflammatory activity in mouse BV-2 cells assessed as reduction in LPS-induced iNOS expression at 0.5 uM by Western blot analysis relative to control; type: functional, cell-based
[24] = Metal chelating activity assessed as Cu2+-compound complex formation at compound:Cu2+ molar ratio of 1:1 to 1:4 at 25 uM incubated for 30 mins by UV-visible spectrophotometry

Compound: CC1(C)Oc2ccc(/C(Cn3ccnc3)=N/OC(=O)/C=C/c3cccc(Cl)c3)cc2O1
- viability at 20 µM ([1]; BV-2 cells): 92.7%
- EC50 [2]: 4.83 µM

Compound: C#CCO/N=C(\Cn1ccnc1)c1ccc2c(c1)OC(C)(C)O2
- viability at 20 µM ([1]; BV-2 cells): 95.1%
- EC50 [2]: 3.25 µM

Compound: Clc1ccc(CO/N=C(\Cn2ccnc2)c2ccc(Cl)cc2Cl)c(Cl)c1 [OXICONAZOLE]
- viability at 20 µM ([1]; bv-2): 96.2%

Compound: C=CCO/N=C(\Cn1ccnc1)c1ccc2c(c1)OC(C)(C)O2
- viability at 20 µM ([1]; BV-2 cells): 96.4%
- EC50 [2]: 2.22 µM

Compound: C#CCO/N=C(\Cn1ccnc1)c1ccc(C(F)(F)F)cc1
- viability at 20 µM ([1]; BV-2 cells): 93.7%
- EC50 [2]: 8.55 µM

Compound: C#CCO/N=C(\Cn1ccnc1)c1ccc(Br)cc1
- CC50 ([1]; BV-2 cells): > 20 µM
- EC50 [2]: 5.6 µM

Compound: N#Cc1ccc(CO/N=C(\Cn2ccnc2)c2ccc3c(c2)OCO3)cc1
- viability at 20 µM ([1]; BV-2 cells): 91.6%
- EC50 [2]: 4.24 µM

Compound: CC1(C)Oc2ccc(/C(Cn3ccnc3)=N/OC(=O)c3ccc(Br)cc3)cc2O1
- viability at 20 µM ([1]; BV-2 cells): 92.6%
- EC50 [2]: 3.16 µM

Compound: C#CC(C)O/N=C(\Cn1ccnc1)c1ccc2c(c1)OCO2 (configuration not stated)
- viability at 20 µM ([1]; BV-2 cells): 96.1%
- EC50 [2]: 5.41 µM

Compound: CC1(C)Oc2ccc(/C(Cn3ccnc3)=N/OC(=O)c3ccc4cc(Br)ccc4c3)cc2O1
- viability at 20 µM ([1]; BV-2 cells): 92.7%
- EC50 [2]: 1.13 µM
- inhibition [3]: 69%

Compound: C(=C\c1ccccc1)/CO/N=C(\Cn1ccnc1)c1ccc2c(c1)OCO2
- viability at 20 µM ([1]; BV-2 cells): 96.3%
- EC50 [2]: > 20 µM

Compound: CC1(C)Oc2ccc(/C(Cn3ccnc3)=N/OC(=O)Cc3cccc4ccccc34)cc2O1
- viability at 24 h, up to 10 µM [4]: > 95%
- Activity [5]: Dde
- viability at 20 µM ([1]; BV-2 cells): 94.8%
- Activity [6]: 84%
- Activity [7]: Active
- Activity [8]: 59%
- Papp [9]: 9.2 ×10⁻⁶ cm/s
- EC50 [2]: 1.02 µM
- solubility [10]: 509 µg/mL (≈ 1150 µM)

Compound: c1ccc(CO/N=C(\Cn2ccnc2)c2ccc3c(c2)OCO3)cc1
- viability at 20 µM ([1]; BV-2 cells): 97.8%
- EC50 [2]: 4.43 µM

Compound: C#CCO/N=C(\Cn1ccnc1)c1ccc(Cl)cc1
- viability at 20 µM ([1]; BV-2 cells): 92.4%
- EC50 [2]: 15.5 µM

Compound: C#CCO/N=C(\Cn1ccnc1)c1ccc2c(c1)OCO2
- viability at 20 µM ([1]; BV-2 cells): 92.5%
- EC50 [2]: 2.07 µM

Compound: CC1(C)Oc2ccc(/C(Cn3ccnc3)=N/OC(=O)c3ccc(F)cc3)cc2O1
- viability at 20 µM ([1]; BV-2 cells): 99.7%
- EC50 [2]: 6.32 µM

Compound: C#CCO/N=C(\Cn1ccnc1)c1ccc(OC)cc1
- viability at 20 µM ([1]; BV-2 cells): 95.9%
- EC50 [2]: 9.07 µM

Compound: CC1(C)Oc2ccc(/C(Cn3ccnc3)=N/OC(=O)/C=C/c3ccc(F)cc3)cc2O1
- viability at 20 µM ([1]; BV-2 cells): 95.7%
- EC50 [2]: 5.96 µM

Compound: Cc1ccc(/C=C/C(=O)O/N=C(\Cn2ccnc2)c2ccc3c(c2)OC(C)(C)O3)cc1
- viability at 20 µM ([1]; BV-2 cells): 93.6%
- EC50 [2]: 6.03 µM

Compound: CC1(C)Oc2ccc(/C(Cn3ccnc3)=N/OC(=O)c3cccc4ccccc34)cc2O1
- viability at 20 µM ([1]; BV-2 cells): 91.1%
- Activity [11]: 36.2%
- EC50 [2]: 1.62 µM

Compound: C=CCO/N=C(\Cn1ccnc1)c1ccc2c(c1)OCO2
- viability at 20 µM ([1]; BV-2 cells): 97.8%
- EC50 [2]: 3.42 µM

Compound: CC1(C)Oc2ccc(/C(Cn3ccnc3)=N/OC(=O)c3ccccc3Br)cc2O1
- viability at 20 µM ([1]; BV-2 cells): 95.4%
- EC50 [2]: 3.89 µM

Compound: CC1(C)Oc2ccc(/C(Cn3ccnc3)=N/OC(=O)c3ccc(Cl)cc3)cc2O1
- viability at 20 µM ([1]; BV-2 cells): 90.5%
- EC50 [2]: 5.52 µM

Compound: CC1(C)Oc2ccc(/C(Cn3ccnc3)=N/OC(=O)/C=C/c3ccccc3)cc2O1
- viability at 20 µM ([1]; BV-2 cells): 91.8%
- EC50 [2]: 5.85 µM

Compound: CC1(C)Oc2ccc(/C(Cn3ccnc3)=N/OC(=O)/C=C/c3ccc(C(F)(F)F)cc3)cc2O1
- viability at 20 µM ([1]; BV-2 cells): 92.1%
- Activity [11]: 27.7%
- EC50 [2]: 1.03 µM

Compound: C#CCO/N=C(\Cn1ccnc1)c1ccc(F)cc1
- viability at 20 µM ([1]; BV-2 cells): 93.8%
- EC50 [2]: 7.8 µM

Compound: NC(=O)N1c2ccccc2C=Cc2ccccc21 [CARBAMAZEPINE]
- Papp [9]: 10.2 ×10⁻⁶ cm/s

Compound: CC1(C)Oc2ccc(/C(Cn3ccnc3)=N/OCc3ccccc3)cc2O1
- viability at 20 µM ([1]; BV-2 cells): 95.7%
- EC50 [2]: 5.69 µM

Compound: CC1(C)Oc2ccc(/C(Cn3ccnc3)=N/OC(=O)/C=C/c3ccccc3F)cc2O1
- viability at 20 µM ([1]; BV-2 cells): 90.8%
- EC50 [2]: 3.19 µM

Compound: C=C(C)CO/N=C(\Cn1ccnc1)c1ccc2c(c1)OCO2
- viability at 20 µM ([1]; BV-2 cells): 96.5%
- EC50 [2]: 2.12 µM

Compound: FC(F)(F)c1ccc(CO/N=C(\Cn2ccnc2)c2ccc3c(c2)OCO3)cc1
- viability at 20 µM ([1]; BV-2 cells): 92.8%
- EC50 [2]: 2.37 µM

Compound: CC1(C)Oc2ccc(/C(Cn3ccnc3)=N/OC(=O)Cc3ccc4ccccc4c3)cc2O1
- viability at 20 µM ([1]; BV-2 cells): 96.4%
- EC50 [2]: 1.51 µM

Compound: O=c1c(O)c(-c2ccc(O)c(O)c2)oc2cc(O)cc(O)c12 [QUERCETIN]
- viability at 20 µM ([1]; BV-2 cells): 94.3%
- EC50 [2]: 9.56 µM

Compound: C#CCO/N=C(\Cn1ccnc1)c1ccc(I)cc1
- viability at 20 µM ([1]; BV-2 cells): 92.1%
- EC50 [2]: 12.7 µM

Compound: CC1(C)Oc2ccc(/C(Cn3ccnc3)=N/OC(=O)c3ccc4ccccc4c3)cc2O1
- Activity [12]: Active
- Activity [13]: Active
- viability at 24 h, up to 10 µM [4]: > 95%
- Activity [5]: Dde
- Ki [14]: 308 nM
- viability at 20 µM ([1]; BV-2 cells): 94.1%
- Activity [15]: Active
- Activity [16]: Active
- Activity [17]: Active
- Activity [6]: 83%
- Activity [18]: Dde
- Activity [7]: Active
- Activity [19]: Active
- inhibition [20]: 92%
- Activity [8]: 58%
- Activity [11]: 25.5%
- Papp [9]: 10.7 ×10⁻⁶ cm/s
- Activity [21]: Dde
- Activity [22]: Active
- Activity [23]: Active
- EC50 [2]: 0.57 µM
- solubility [10]: 316 µg/mL (≈ 738 µM)
- Activity [24]: Active
- inhibition [3]: 67%

Compound: Cc1ccc(C(=O)O/N=C(\Cn2ccnc2)c2ccc3c(c2)OC(C)(C)O3)c2ccccc12
- viability at 20 µM ([1]; BV-2 cells): 94.3%
- Activity [11]: 34%
- EC50 [2]: 1.79 µM

Compound: FC(F)(F)c1ccccc1CO/N=C(\Cn1ccnc1)c1ccc2c(c1)OCO2
- viability at 20 µM ([1]; BV-2 cells): 95.4%
- Activity [11]: 8.51%
- EC50 [2]: 1.53 µM

Compound: CC1(C)Oc2ccc(/C(Cn3ccnc3)=N/OC(=O)c3ccc4ccccc4c3Br)cc2O1
- viability at 20 µM ([1]; BV-2 cells): 90.8%
- EC50 [2]: 6.5 µM
- inhibition [3]: 72%

Compound: Cc1ccc(C(=O)O/N=C(\Cn2ccnc2)c2ccc3c(c2)OC(C)(C)O3)cc1
- viability at 20 µM ([1]; BV-2 cells): 98.2%
- EC50 [2]: 9.05 µM

Compound: CC1(C)Oc2ccc(/C(Cn3ccnc3)=N/OC(=O)/C=C/c3ccc(Br)cc3)cc2O1
- viability at 20 µM ([1]; BV-2 cells): 96.3%
- EC50 [2]: 6.89 µM

Compound: CC(C)=CCO/N=C(\Cn1ccnc1)c1ccc2c(c1)OCO2
- viability at 20 µM ([1]; BV-2 cells): 93.3%
- Activity [11]: 4.25%
- EC50 [2]: 1.76 µM

Compound: CC1(C)Oc2ccc(/C(Cn3ccnc3)=N/OC(=O)/C=C/c3ccc(Cl)cc3)cc2O1
- viability at 20 µM ([1]; BV-2 cells): 91%
- EC50 [2]: 3.71 µM
- inhibition [3]: 71%

Compound: Cc1cccc(C(=O)O/N=C(\Cn2ccnc2)c2ccc3c(c2)OC(C)(C)O3)c1
- viability at 20 µM ([1]; BV-2 cells): 96.1%
- Activity [11]: 29.8%
- EC50 [2]: 1.71 µM
